Measured values reported in US20100003346A1, “COMBINATION METHODS OF TREATING CANCER” (priority 2006, published 2010).
Where two headings read alike, the source gives them in different places.

Legend:
[1] = system: D122 murine lung carcinoma; test: Cytotoxicity assay (MTS, CellTiter 96) in D122 cells; conditions: for IC50: Mus musculus
Protocol: (§1) CT26 is a murine colon carcinoma. DA-3 is a murine mammary adenocarcinoma. TRAMP C1 is a murine prostate adenocarcinoma. MCF7 is a human breast adenocarcinoma. M IA PaCa-2 is a human pancreatic carcinoma. D122 is a murine lung carcinoma. BCL1 is a murine B cell leukemia. All cell lines were purchased from ATCC (Rockville, Md., USA), except for DA3 and D122 which were kindly provided by Prof. Y. Keisari (Tel-Aviv University, Israel).
(§2) All cells (except for BCL1) were plated into 96-well microtiter plates (Corning) at a density of 2*10^3 cells per well and were allowed to adhere prior to treatment. BCL1 cells were seeded at a density of 20*10^4 cells per well. The cells were exposed to MJ, cytotoxic drugs, 2DG or their combinations at different concentrations for 24 hours. Cytotoxic drugs and 2DG were added 1 h prior to MJ addition.
(§3) Inhibition of cell proliferation was determined by the CellTiter 96 Aqueous Non-Radioactive Cell Proliferation Assay (Promega, Madison, Wis., USA). Upon completion of a given experiment, 20 μl of a mixture (20:1) of MTS (a tetrazolium compound, at a final concentration of 333 μg/ml)+phenazine methosulfate (at a final concentration of 25 μM) were added to each well of the 96-well plate for 1 h at 37° C. This allowed for the development of the reaction in which dehydrogenases reduce the MTS in metabolically active cells. […] Soluble MTS formazan product at wavelength 490 nm was measured with the CERES 900 HDi ELISA reader (Bio-Tek Instruments, Highland Park, Vt., USA). Optical density is directly proportional to the number of living cells in culture. Cytotoxicity (%) was calculated in the following way: [(absorbance of control cells−absorbance of drug-treated cells)/absorbance of control cells]×100.

[2] = system: DA-3 murine mammary adenocarcinoma; test: Cytotoxicity assay (MTS, CellTiter 96) in DA-3 cells; conditions: for IC50: Mus musculus
Protocol: as §1
The cells were maintained in a humidified atmosphere, at 37° C. with 5% CO2. CT26 and DA-3 cells were maintained in Dulbecco's modified Eagle's medium (Biological Industries, Beit-Haemek, Israel), supplemented with 10% FCS, 2 mM L-glutamine, 100 U ml^−1 penicillin, 100 μg ml^−1 streptomycin, 1 mM sodium pyruvate and 1:100 dilution of nonessential amino acids (all purchased from Biological Industries, Israel).
as §2, §3

[3] = system: CT26 murine colon carcinoma; test: Cytotoxicity assay (MTS, CellTiter 96) in CT26 cells; type: cell-based
Protocol: as §1
The cells were maintained in a humidified atmosphere, at 37° C. with 5% CO2. CT26 and DA-3 cells were maintained in Dulbecco's modified Eagle's medium (Biological Industries, Beit-Haemek, Israel), supplemented with 10% FCS, 2 mM L-glutamine, 100 U ml^−1 penicillin, 100 μg ml^−1 streptomycin, 1 mM sodium pyruvate and 1:100 dilution of nonessential amino acids (all purchased from Biological Industries, Israel). […]
Inhibition of cell proliferation was determined by the CellTiter 96 Aqueous Non-Radioactive Cell Proliferation Assay (Promega, Madison, Wis., USA). […] Soluble MTS formazan product at wavelength 490 nm was measured with the CERES 900 HDi ELISA reader (Bio-Tek Instruments, Highland Park, Vt., USA). […] Cytotoxicity (%) was calculated in the following way: [(absorbance of control cells−absorbance of drug-treated cells)/absorbance of control cells]×100.

[4] = system: TRAMP C1 murine prostate adenocarcinoma; test: Cytotoxicity assay (MTS, CellTiter 96) in TRAMP C1 cells; type: cell-based; conditions: for IC50: Mus musculus; for IC50 / Cooperative effect of combination of MJ and chemotherapeutic drug: TRAMP C1 cells; for Cooperative effect of combination of MJ and chemotherapeutic drug: drug combined with fixed concentration of MJ, cooperative = pV<0.05 vs expected additivity
Protocol: as §1
TRAMP C1 cells were grown in Dulbecco's modified Eagle's medium supplemented with 10% FCS, 2 mM L-glutamine, 100 U ml^−1 penicillin, 100 μg ml^−1 streptomycin, 1 mM sodium pyruvate, 1:100 dilution of nonessential amino acids, 5 μg/ml bovine insulin and 10 nM dehydroisoandrosterone.
as §2, §3

[5] = system: MIA PaCa-2 human pancreatic carcinoma; test: Cytotoxicity assay (MTS, CellTiter 96) in MIA PaCa-2 cells; conditions: for IC50: Homo sapiens; for Cooperative effect of combination of MJ and chemotherapeutic drug: MIA PaCA-2 cells, drug combined with fixed concentration of MJ, cooperative = pV<0.05 vs expected additivity
Excerpt: as §1
(§4) MCF7, MIA PaCa-2 and BCL1 cells were maintained in RPMI-1640 medium (Biological Industries, Israel) supplemented with 10% FCS, 2 mM L-glutamine, 100 U ml^−1 penicillin and 100 μg ml^−1 streptomycin.
as §2, §3

[6] = system: MCF7 human breast adenocarcinoma; test: Cytotoxicity assay (MTS, CellTiter 96) in MCF7 cells; type: cell-based
Excerpt: as §1, §4, §2, §3

[7] = system: BCL1 murine B cell leukemia; test: Cytotoxicity assay (MTS, CellTiter 96) in freshly extracted BCL1 cells; conditions: for IC50: Mus musculus; for Interaction of MJ with drug (cytotoxicity vs expected additivity): BCL1; for Cooperative effect of combination of MJ and chemotherapeutic drug: BCL1 cells, drug combined with fixed concentration of MJ (0.1 mM), cooperative = pV<0.05 vs expected additivity
Excerpt: as §1, §4
BCL1 cells, which are unable to grow continuously in culture, were maintained in BALB/c mice. Blood was taken from the tail vein of BCL1-bearing mice on day 23-28 post inoculation, and depleted of red blood cells (RBC) using RBC lysis buffer (Sigma-Aldrich). The purified leukemic cells were used for in vitro and in vivo experiments.
as §2, §3

[8] = mouse, in vivo
Protocol: (§5) 2×10^4 BCL1 cells, freshly extracted from BCL1 leukemia bearing BALB/c mice, were inoculated intraperitoneally (i.p.) into mice in 100 μl PBS to produce tumor growth. Methyl jasmonate at 60 mg/kg was administered to animals 5 times a week, daily, for 4 weeks, starting one day after cell inoculation. […] MJ was dissolved in a lipid formulation, Lipofundin (B. Braun Melsungen, Melsungen, Germany). The adriamycin was given to mice twice, on days 7 and 14, at 4 mg/kg, i.p. Control mice were treated with the vehicle alone. The survival of mice was monitored daily.

BCL1 leukemia = test: Survival of BCL1 leukemia-bearing mice; type: in vivo, BALB/c mice; conditions: MJ 60 mg/kg i.v. or adriamycin 4 mg/kg i.p. alone
Protocol: Balb/c male mice (7-8 weeks old) were obtained from the breeding colony of Tel-Aviv University, Israel. Animal care and experimentation were carried out in accordance with Tel-Aviv University guidelines and approved by the institutional animal use and care committee. Mice were kept in cages under standard food and housing conditions during the experiments.
as §5
Statistical significance in in vitro experiments was assessed using the two-tailed Student's t-test. P<0.05 was considered statistically significant. The survival curves (Kaplan-Meier test) and statistical analysis (Mantel-Cox test) were carried out using Statistical software.
Since adriamycin is used for treatment of leukemia, it was chosen for an experiment assessing a combination with MJ in vivo. […]

[9] = drug at other concentrations + 0.1 mM MJ

## CC/C=C\CC1C(=O)CCC1CC(=O)OC (stereo not shown) [MJ, methyl 3-oxo-2-(2-pentenyl)cyclopentaneacetic acid]
[1]; 24 h, read-out: IC50 of MJ
  IC50: 1220 ± 60 µM
[2]; DA-3, 24 h, read-out: IC50 of MJ
  IC50: 1910 ± 80 µM
[3]; Mus musculus, CT26 cells, 24 h exposure
  IC50: 2590 ± 120 µM
[4]; 24 h exposure, read-out: IC50 of MJ
  IC50: 2940 ± 130 µM
[5]; MIA PaCa-2, 24 h, read-out: IC50 of MJ
  IC50: 1460 ± 130 µM
[6]; Homo sapiens, MCF7 cells, 24 h exposure
  IC50: 1490 ± 60 µM
[7]; BCL1, 24 h, read-out: IC50 of MJ
  IC50: 560 ± 90 µM
[7]; BCL1, read-out: IC50 of MJ
  IC50: 560 µM
[8]
  Tolerability of MJ dose: well tolerated

## O=NN(CCCl)C(=O)NCCCl [BCNU, 1,3-bis{2-Chloroethyl}-1-nitroso-urea]
[5]; MIA PaCa-2, read-out: IC50 of BCNU by itself
  IC50: > 25 µg/mL
[5]; MIA PaCa-2, read-out: IC50 of BCNU in the combination with MJ
  IC50: < 1 µg/mL
[5]
  Cooperative effect of combination of MJ and chemotherapeutic drug: +
[5]; MIA PaCa-2, BCNU at all concentrations tested (1-25 μg/ml) + 1 mM MJ
  Interaction of MJ with drug (cytotoxicity vs expected additivity): strong cooperative effects
[7]; BCNU 2.5 and 5 μg/ml + 0.1 mM MJ, pV<0.05
  Interaction of MJ with drug (cytotoxicity vs expected additivity): cooperation
[7]; [9]
  Interaction of MJ with drug (cytotoxicity vs expected additivity): additive effect
[7]
  Cooperative effect of combination of MJ and chemotherapeutic drug: +

## O=CC[C@@H](O)[C@H](O)[C@H](O)CO [2DG, 2-Deoxy-D-glucose]
[1]; D122, 2DG 0.5 mM, each MJ concentration, pV<0.05
  Effect of 2DG on cytotoxicity of MJ: significantly enhanced
[2]; DA-3, 2DG 0.5 mM with MJ
  Effect of 2DG on cytotoxicity of MJ: No cooperative effect
[3]; CT26, 2DG 0.5 mM, each MJ concentration, pV<0.05
  Effect of 2DG on cytotoxicity of MJ: significantly enhanced
[6]; MCF7, 2DG 0.5 mM, other MJ concentrations
  Effect of 2DG on cytotoxicity of MJ: additive

## CC(=O)O[C@H]1C(=O)[C@@]2(C)[C@H]([C@H](OC(=O)c3ccccc3)[C@]3(O)C[C@H](OC(=O)[C@H](O)[C@@H](NC(=O)c4ccccc4)c4ccccc4)C(C)=C1C3(C)C)[C@]1(OC(C)=O)CO[C@@H]1C[C@@H]2O [Taxol]
[1]; D122 cells, drug combined with fixed concentration of MJ, cooperative = pV<0.05 vs expected additivity
  Cooperative effect of combination of MJ and chemotherapeutic drug: +
[1]; read-out: IC50 of taxol alone
  IC50: 8.2 µg/mL
[1]; read-out: IC50 of taxol in the presence of MJ
  IC50: < 1 µg/mL
[2]; DA-3 cells, drug combined with fixed concentration of MJ, cooperative = pV<0.05 vs expected additivity
  Cooperative effect of combination of MJ and chemotherapeutic drug: +
[2]; DA-3, read-out: IC50 of taxol alone
  IC50: 9 µg/mL
[2]; DA-3, read-out: IC50 of taxol in combination with MJ
  IC50: 2.5 µg/mL
[4]; drug alone, read-out: IC 50 of taxol
  IC50: 38 µg/mL
[4]; with 1 mM MJ, read-out: IC 50 of taxol by combined treatment with MJ
  IC50: 2 µg/mL
[4]; TRAMP C1, taxol at all concentrations tested (1-50 μg/ml) + 1 mM MJ
  Combined effect of taxol with MJ vs expected additivity: significantly higher than the expected additivity
[4]
  Cooperative effect of combination of MJ and chemotherapeutic drug: +
[6]; MCF7, taxol 2.5 μg/ml + 1 mM MJ
  Interaction of MJ with drug (cytotoxicity vs expected additivity): enhances the cytotoxic capability
[6]; MCF7, taxol at other concentrations + 1 mM MJ
  Interaction of MJ with drug (cytotoxicity vs expected additivity): additive
[6]; MCF7 cells, drug combined with fixed concentration of MJ, cooperative = pV<0.05 vs expected additivity
  Cooperative effect of combination of MJ and chemotherapeutic drug: +
[7]; drug + 0.1 mM MJ
  Interaction of MJ with drug (cytotoxicity vs expected additivity): No cooperative effect

## N.N.[Cl][Pt][Cl] [Cisplatin, cis Diammineplatinum (II) dichloride]
[4]
  Cooperative effect of combination of MJ and chemotherapeutic drug: +
[5]
  Cooperative effect of combination of MJ and chemotherapeutic drug: +

## COc1cccc2c1C(=O)c1c(O)c3c(c(O)c1C2=O)C[C@@](O)(C(=O)CO)C[C@@H]3O[C@H]1C[C@H](N)[C@H](O)[C@H](C)O1 [Adriamycin]
[7]; adriamycin 10 and 25 ng/ml + 0.1 mM MJ
  Interaction of MJ with drug (cytotoxicity vs expected additivity): cooperation
[7]; [9]
  Interaction of MJ with drug (cytotoxicity vs expected additivity): additive effect
[7]
  Cooperative effect of combination of MJ and chemotherapeutic drug: +
BCL1 leukemia
  Survival of BCL1 leukemia-bearing mice, single agent: did not induce increased survival
